Source: the supplement of paper PMC11208160
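Further: IS621 recombinase and bridge RNA in Escherichia coli cells.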

Assay: recombinant barcode read abundance after kanamycin selection (control-corrected) (log10(CPM+1)); higher = more efficient recombination; sequences stand for … in AGTGCAGAGAAAATCGGCCAGTTTTCTCTGCCTGCAGTCCGCATGCCGT…AGATTTATGCAGCGGACTGCCTTTCTCCCAAAGTGATAAACCGGACAGTATCATGGACCGGTTTTCCCGGTAATCCGTATTTGCAAGGTTGGTTTCACT; site = the 11-nt target
How it was run: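 Pooled oligos, each joining a target to an IS621 bridge RNA target-binding loop, were cloned and co-electroporated with a donor plasmid into E. coli. Selective plates carried chloramphenicol/ampicillin/kanamycin and 0.1 mM IPTG, while chloramphenicol/ampicillin LB agar served as control, with two replicates of each. Recombination efficiency rests on averaged, control-corrected counts per million of barcodes at recombinant junctions, shown as log10(CPM+1).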
For “AGGATTCCTTGGGTTCTAACCTGTTGCCT (site ATGATTCCTAG)”, the “recombinant barcode read abundance (log10)” value was 0.158. With “TTCAGTCCTTGGGTTCTAACCTGTTGCAT (site TTCAGTCCTAT)” the “recombinant barcode read abundance (log10)” value was 0.509. In the case of “CGGGCTACTTGGGTTCTAACCTGTTGCTA (site GGGGCAACTTA)”, the “recombinant barcode read abundance (log10)” value is reported as 0.209. With “AATGGGCCTTGGGTTCTAACCTGTTGCCT (site AATGGGACTAG)” the “recombinant barcode read abundance (log10)” value was 0.131. With “ATCGGAGCTTGGGTTCTAACCTGTTGCGG (site ATCGGAGCTCT)” the “recombinant barcode read abundance (log10)” value was 0.592. For “TCAAGCCCTTGGGTTCTAACCTGTTGCAG (site CAGTCTACTAC)”, the “recombinant barcode read abundance (log10)” value was 0.011. With “CTACGGTCTTGGGTTCTAACCTGTTGCAC (site CTACGATCTGT)” the “recombinant barcode read abundance (log10)” value was 0.256. With “TGGACGCCTTGGGTTCTAACCTGTTGCCT (site TGGACGTCTAG)” the “recombinant barcode read abundance (log10)” value was 0.0267. In the case of “TATTAGACTTGGGTTCTAACCTGTTGCCT (site TATTAGACTAG)”, the “recombinant barcode read abundance (log10)” value is reported as 0.225. In the case of “CTAGCAACTTGGGTTCTAACCTGTTGCTT (site CTAGCAACTAA)”, the “recombinant barcode read abundance (log10)” value is reported as 0.26. For “TGTAAGACTTGGGTTCTAACCTGTTGCTG (site TGTAAGGCTAA)”, the “recombinant barcode read abundance (log10)” value was 0.015. With “AGCTTAGCTTGGGTTCTAACCTGTTGCCA (site AGCTTAGCTCG)” the “recombinant barcode read abundance (log10)” value was 0.365. With “GTCTTACCTTGGGTTCTAACCTGTTGCTT (site TTCATACCTAA)” the “recombinant barcode read abundance (log10)” value was 0.128. For “GGGTCCACTTGGGTTCTAACCTGTTGCCA (site GGGTCCACTCC)”, the “recombinant barcode read abundance (log10)” value was 0.127. In the case of “TCCGTTACTTGGGTTCTAACCTGTTGCCG (site CAGCAGCCTAA)”, the “recombinant barcode read abundance (log10)” value is reported as 0.086. In the case of “CGGGCTACTTGGGTTCTAACCTGTTGCGG (site CGGGCTACTCC)”, the “recombinant barcode read abundance (log10)” value is reported as 3.05. With “TGCCAGACTTGGGTTCTAACCTGTTGCAT (site TGCCAGACTAT)” the “recombinant barcode read abundance (log10)” value was 1.12. For “CTCCATTCTTGGGTTCTAACCTGTTGCCT (site CTCCATCCTAG)”, the “recombinant barcode read abundance (log10)” value was 0.314. For “ATCTTATCTTGGGTTCTAACCTGTTGCCT (site ATCTTAACTAG)”, the “recombinant barcode read abundance (log10)” value was 0.0526. In the case of “AGACATCCTTGGGTTCTAACCTGTTGCTT (site AGACCTCCTAA)”, the “recombinant barcode read abundance (log10)” value is reported as 0.0971. In the case of “CATAGGCCTTGGGTTCTAACCTGTTGCAT (site CATAGACCTAT)”, the “recombinant barcode read abundance (log10)” value is reported as 0.23. In the case of “CGACGCACTTGGGTTCTAACCTGTTGCGG (site CGACGCACTCC)”, the “recombinant barcode read abundance (log10)” value is reported as 0.584. For “CTAGTGTCTTGGGTTCTAACCTGTTGCAC (site CTAGTCACTGT)”, the “recombinant barcode read abundance (log10)” value was 0.198. In the case of “CTGATCACTTGGGTTCTAACCTGTTGCCT (site CTGATAACTAG)”, the “recombinant barcode read abundance (log10)” value is reported as 0.0217. In the case of “TACTAAGCTTGGGTTCTAACCTGTTGCGT (site TACTAAGCTAG)”, the “recombinant barcode read abundance (log10)” value is reported as 0.122. In the case of “ACACTAACTTGGGTTCTAACCTGTTGCCT (site ATACTAACTAG)”, the “recombinant barcode read abundance (log10)” value is reported as 0. With “TTGGTGCCTTGGGTTCTAACCTGTTGCCT (site TTGGTACCTAG)” the “recombinant barcode read abundance (log10)” value was 1.97. For “ATATGTGCTTGGGTTCTAACCTGTTGCCG (site ATATGGGCTCG)”, the “recombinant barcode read abundance (log10)” value was 0.108. In the case of “ACTAGTCCTTGGGTTCTAACCTGTTGCCT (site ACTAGTCCTAA)”, the “recombinant barcode read abundance (log10)” value is reported as 0.233. With “AGGTCTACTTGGGTTCTAACCTGTTGCGG (site AGGTCTACTCC)” the “recombinant barcode read abundance (log10)” value was 1.63. For “AAGCCCACTTGGGTTCTAACCTGTTGCGG (site AAGCCCACTCC)”, the “recombinant barcode read abundance (log10)” value was 2.28. In the case of “GAGGCTCCTTGGGTTCTAACCTGTTGCCT (site GAGGCTCCTAG)”, the “recombinant barcode read abundance (log10)” value is reported as 0.744. In the case of “GGTCGTACTTGGGTTCTAACCTGTTGCCT (site GGTCGTACTAG)”, the “recombinant barcode read abundance (log10)” value is reported as 0.286. For “CAAACTACTTGGGTTCTAACCTGTTGCCA (site CAAACTACTTG)”, the “recombinant barcode read abundance (log10)” value was 0.0171. With “CGAGGGACTTGGGTTCTAACCTGTTGCCT (site CGAGGGGCTAG)” the “recombinant barcode read abundance (log10)” value was 0.807. For “GACTATGCTTGGGTTCTAACCTGTTGCCT (site GTCTATGCTAG)”, the “recombinant barcode read abundance (log10)” value was 0.00989. For “CTAGCAGCTTGGGTTCTAACCTGTTGCAT (site CTAGCAGCTAT)”, the “recombinant barcode read abundance (log10)” value was 0.434. In the case of “CGGATAGCTTGGGTTCTAACCTGTTGCCT (site CGGATGGCTAG)”, the “recombinant barcode read abundance (log10)” value is reported as 0.153. For “GCACAGTCTTGGGTTCTAACCTGTTGCTT (site GCACAGTCTAA)”, the “recombinant barcode read abundance (log10)” value was 1.93. In the case of “ATGCGCCCTTGGGTTCTAACCTGTTGCCT (site ATGCACCCTAG)”, the “recombinant barcode read abundance (log10)” value is reported as 0.43. In the case of “CTCTAGGCTTGGGTTCTAACCTGTTGCCT (site CTCTCGGCTAG)”, the “recombinant barcode read abundance (log10)” value is reported as 0.186. With “ACTAAACCTTGGGTTCTAACCTGTTGCCT (site ACTAAACCTAG)” the “recombinant barcode read abundance (log10)” value was 0.866. For “ATAGTCCCTTGGGTTCTAACCTGTTGCCT (site ATGGTCCCTAG)”, the “recombinant barcode read abundance (log10)” value was 0.644. With “CTAGCAACTTGGGTTCTAACCTGTTGCTT (site CTAGCAGCTAT)” the “recombinant barcode read abundance (log10)” value was 0.124. In the case of “CTAAAAGCTTGGGTTCTAACCTGTTGCAA (site CTAAAAGCTTT)”, the “recombinant barcode read abundance (log10)” value is reported as 0.501. For “TACGGGTCTTGGGTTCTAACCTGTTGCCT (site AAGGGGTCTAG)”, the “recombinant barcode read abundance (log10)” value was 0.0993. With “CGTAAACCTTGGGTTCTAACCTGTTGCGT (site CGTCAACCTAC)” the “recombinant barcode read abundance (log10)” value was 0.0732. For “TACGGGGCTTGGGTTCTAACCTGTTGCCT (site TACGTGGCTAG)”, the “recombinant barcode read abundance (log10)” value was 0.414. With “GTACAGACTTGGGTTCTAACCTGTTGCCT (site GTCCAGACTAG)” the “recombinant barcode read abundance (log10)” value was 0.0588. With “TGGCACCCTTGGGTTCTAACCTGTTGCGG (site TGGAACCCTCC)” the “recombinant barcode read abundance (log10)” value was 0.129. In the case of “AAGATAGCTTGGGTTCTAACCTGTTGCCT (site AAGACAGCTAG)”, the “recombinant barcode read abundance (log10)” value is reported as 0.147. With “GAACGACCTTGGGTTCTAACCTGTTGCTT (site GAACGACCTCA)” the “recombinant barcode read abundance (log10)” value was 0.0114. In the case of “ACATGGTCTTGGGTTCTAACCTGTTGCGT (site ACATGGTCTAC)”, the “recombinant barcode read abundance (log10)” value is reported as 2.92. For “GAGCGTACTTGGGTTCTAACCTGTTGCAT (site GAGTGTACTAT)”, the “recombinant barcode read abundance (log10)” value was 0.0144. In the case of “CGACACACTTGGGTTCTAACCTGTTGCCT (site CGACACACTAG)”, the “recombinant barcode read abundance (log10)” value is reported as 0.135. With “AAAGGGGCTTGGGTTCTAACCTGTTGCCT (site AAAGGGGCTAG)” the “recombinant barcode read abundance (log10)” value was 2.2. For “CTATGACCTTGGGTTCTAACCTGTTGCTT (site CTATGACCTAT)”, the “recombinant barcode read abundance (log10)” value was 0.394. With “GGAATGACTTGGGTTCTAACCTGTTGCCT (site GAAATGACTAG)” the “recombinant barcode read abundance (log10)” value was 0.344. In the case of “CGCTTGTCTTGGGTTCTAACCTGTTGCCT (site CGCTCGTCTAG)”, the “recombinant barcode read abundance (log10)” value is reported as 0.00757. In the case of “GTCTCTACTTGGGTTCTAACCTGTTGCCG (site GTCGCTACTCG)”, the “recombinant barcode read abundance (log10)” value is reported as 0.117. For “ACGGAATCTTGGGTTCTAACCTGTTGCCG (site ACGGAATCTCG)”, the “recombinant barcode read abundance (log10)” value was 0.46. For “GCGTTACCTTGGGTTCTAACCTGTTGCCT (site GGGATACCTAG)”, the “recombinant barcode read abundance (log10)” value was 0.0535. For “CAGGACTCTTGGGTTCTAACCTGTTGCTT (site CAGGACTCTAA)”, the “recombinant barcode read abundance (log10)” value was 2.85. For “GCAGGTCCTTGGGTTCTAACCTGTTGCCT (site GCAGGTCCTAG)”, the “recombinant barcode read abundance (log10)” value was 0.788. For “AAAGGTTCTTGGGTTCTAACCTGTTGCCT (site AGAGGTTCTAG)”, the “recombinant barcode read abundance (log10)” value was 0.0624. In the case of “TCGTCATCTTGGGTTCTAACCTGTTGCCT (site TCGTCATCTAG)”, the “recombinant barcode read abundance (log10)” value is reported as 0.21.
